For test [1], the system named is epinephrine antibodies (γ-globulin fraction obtained in Example 2). Description: Equilibrium dialysis method, specificity of the epinephrine antibodies. Details: species or system rabbit. As to conditions: binding of 3H-DL-epinephrine (10μl of 3.4×10^-5 M) with 10μl of 3.4×10^-3 M compound; antibody 5.5 × 10^-6 M; 25° C; 100 = no compound. As to the method: The γ-globulin fraction obtained in Example 2 was dialyzed against the phosphate buffered saline and a solution of the final concentration of 0.94mg/ml was performed prepared. The γ-globulin solution was used as the antibody solution in this method. To the phosphate buffered saline used in this procedure, 0.01% of sodium metabisufite(Na2 S2 O5) and 0.015% ethylenediaminetetraacetic acid disodium salt were added.
An equilibrium dialysis apparatus of 2ml capacity was used and 500μl of the antibody solution was poured into one of a pair cell(cell A) and into another cell(cell B), 10μl of the phosphate buffered saline solution of DL-epinephrine labelled with tritium(^3 H) in a concentration of 3.4×10^-5 M and 490μl of phosphate buffered saline were introduced. They were shaked at 25° C to reach equilibrium and then radioactivity of each solution were counted. The difference of each counts was calculated and made as the standard.
Then, 500μl of γ-globulin solution was put in cell A, and in cell B were introduced 10μl of a solution of the concentration of 3.4×10^-3 M of epinephrine or one of other catecholamine or analogue compounds, 10μl of a phosphate buffered saline solution of ^3 H-epinephrine (3.4×10^-5 M) and 480μl of phosphate buffered saline. The solutions were shaked by the same manner as above and after equilibrium, the radioactivity of each solution were counted. The difference was calculated and the relative bindings were calculated from the standard.

For test [2], the system named is antiserum to epinephrine-BSA. Description: Ouchterlony method, specificity of antiserum to epinephrine-BSA. The class given is binding, rabbit. Set-up: key: the degree of the precipitate formation were indicated by the signs of +++, ++,+-, and -, in turn; the degree of the precipitate formation were indicated by the signs of +++, ++,+-, and -, in turn; the degree of the precipitate formation were indicated by the signs of +++, ++,+-, and -, in turn; the degree of the precipitate formation were indicated by the signs of +++, ++,+-, and -, in turn. Particulars: antigen 1mg/ml; antiserum after removal of antibodies to carrier material. As to the method: (§1) Agar was dissolved in phosphate buffered saline with warming to yield a final concentration of 1.2% and the solution was spread 2 mm in thickness on a glass plate. After cooling, 7 holes of 2mm diameter were made on the center and corners of a true hexagon with 5 mm side. In the center hole, the antiserum obtained above or diluted thereof to 1/2-1/3 with the phosphate buffered saline was filled. In the corner holes, the phosphate buffered saline solution of the conjugate (0.5-1.0mg/ml) and BSA were filled alternately. […] Therefore, an equal volume of BSA solution (1mg/ml) was added to the antiserum and the mixture was allowed to stand at 37° C for 1 hour, then at 4° C overnight. The resulted precipitates were removed by centrifuging. […] This antiserum was then dialyzed with 6M urea solution for 15 hours followed with phosphate buffer (0.007M NaH2 PO4,pH 6.3) for 2 days. The resulting solution was passed through a DEAE-cellulose column and the first fraction (gamma globulin fraction,γG-fraction) was collected with examining the absorbance at 280nm. […] The γG-fraction was dialyzed with water and lyophilized for the stock.
Epinephrine specific antiserum was produced and γG-fraction was obtained by the same manner as in Example 1 using the phosphate buffered saline solution of the conjugate and complete Freund's adjuvant. […]

Test [3] has as its system antiserum to L-dopa-BSA. The test is described as follows: Ouchterlony method, specificity of antiserum to L-dopa-BSA. The class given is binding, rabbit. As to conditions: antigen 1mg/ml; antiserum after removal of antibodies to carrier material. Set-up: key: the degree of the precipitate formation were indicated by the signs of +++, ++,+-, and -, in turn; the degree of the precipitate formation were indicated by the signs of +++, ++,+-, and -, in turn; the degree of the precipitate formation were indicated by the signs of +++, ++,+-, and -, in turn; the degree of the precipitate formation were indicated by the signs of +++, ++,+-, and -, in turn.
Description: The phosphate buffered saline solution of the conjugate was mixed with an equal volume of complete Freund's adjuvant to prepare a w/o type emulsion. The emulsion was intradermally injected to rabbit foot pads in the amount of 2-3mg of the antigen. After four weeks, phosphate buffered saline solution of the conjugate (1mg) was injected into the marginal vein of the rabbit ear. (This operation can be replaced by injecting subcutaneously the w/o emulsion of phosphate buffered saline solution of the conjugate (1mg) and incomplete Freund's adjuvant). One week after the booster injection, the rabbit were bled and the antisera were obtained.
Agar was dissolved in phosphate buffered saline with warming to yield a final concentration of 1.2% and the solution was spread 2 mm in thickness on a glass plate. After cooling, 7 holes of 2mm diameter were made on the center and corners of a true hexagon with 5 mm side. In the center hole, the antiserum obtained above or diluted thereof to 1/2-1/3 with the phosphate buffered saline was filled. […] Therefore, an equal volume of BSA solution (1mg/ml) was added to the antiserum and the mixture was allowed to stand at 37° C for 1 hour, then at 4° C overnight. […] The resulting solution was passed through a DEAE-cellulose column and the first fraction (gamma globulin fraction,γG-fraction) was collected with examining the absorbance at 280nm. […]

The test system of test [4] is antiserum to dopamine-BSA. The test is described as follows: Ouchterlony method, specificity of antiserum to dopamine-BSA. As to conditions: antigen 1mg/ml; antiserum after removal of antibodies to carrier material. Details: key: the degree of the precipitate formation were indicated by the signs of +++, ++,+-, and -, in turn; the degree of the precipitate formation were indicated by the signs of +++, ++,+-, and -, in turn; the degree of the precipitate formation were indicated by the signs of +++, ++,+-, and -, in turn; the degree of the precipitate formation were indicated by the signs of +++, ++,+-, and -, in turn. The class given is binding, rabbit. As to the method:
as §1
According to the same manner as in Example 1, the dopamine specific antibody and γG-fraction thereof was obtained.
(§2) The specificity of antisera to the antigens was examined by the Ouchterlony method. […]

Test [5] deals with antiserum to norepinephrine. The test is described as follows: Ouchterlony method, specificity of antiserum to norepinephrine. Details: key: the degree of the precipitate formation were indicated by the signs of +++, ++,+-, and -, in turn; the degree of the precipitate formation were indicated by the signs of +++, ++,+-, and -, in turn; the degree of the precipitate formation were indicated by the signs of +++, ++,+-, and -, in turn; the degree of the precipitate formation were indicated by the signs of +++, ++,+-, and -, in turn. Particulars: antigen 1mg/ml; antiserum after removal of antibodies to carrier material. The format is binding, rabbit. As to the method: as §1
By the same manner as in Example 1, the antiserum of norepinephrine was produced and after removing the BSA-antibody, the γ-globuline fraction was obtained.
as §2

With `COc1cc(C(O)CN)ccc1O` (racemic) [DL-normetanephrine], the “relative binding (%)” value in test [1] amounted to 97.2%.
On to `COc1cc(CC(=O)O)ccc1O` [4-hydroxy-3-methoxyphenylacetic acid], for which the “relative binding (%)” value in test [1] is recorded as 91.7%.
As for `NC[C@H](O)c1ccc(O)c(O)c1` [L-norepinephrine], the “relative binding (%)” value in test [1] turned out to be 54.8%.
Turning to `O=C(O)Cc1ccc(O)c(O)c1` [3,4-dihydroxyphenylacetic acid], the “relative binding (%)” value in test [1] is listed as 83.8%.
On the same count and under the same terms, for `CNCC(O)c1ccc(O)c(OC)c1` (racemic) [DL-methanephrine] the value was 81.7%.
On the same count and under the same terms, the same measure for `NCCc1ccc(O)c(O)c1` [dopamine]: 88.0%; for `N[C@@H](Cc1ccc(O)c(O)c1)C(=O)O` [L-dopa]: 90.7%.
On to “norepinephrine-BSA: 20-30 moles of norepinephrine conjugated to one mole of BSA”, for which the “degree of the precipitate formation, antiserum to epinephrine-BSA” value in test [2] is “+-”. The “degree of the precipitate formation, antiserum to L-dopa-BSA” value in test [3] is reported as “+-”. Moreover, in test [4], the “degree of the precipitate formation, antiserum to dopamine-BSA” value is “+-”. In addition, the “degree of the precipitate formation, antiserum to norepinephrine” value in test [5] is “++”.
As for `CC(C)NC[C@H](O)c1ccc(O)c(O)c1` [L-isoproterenol], in test [1], the “relative binding (%)” value amounted to 72.9%.
Turning to `CNC[C@H](O)c1ccc(O)c(O)c1` [L-epinephrine], the “relative binding (%)” value in test [1] is 0%.

(Values after patent publication US4122078A, “Antigens and antibodies of catecholamines” (priority 1975, dated 1978).)
